Type in all cases: cell-based
In one assay the test system is E. coli (CTX-M-15). Kind of assay: microbe, parasite or virus in culture. The protocol:
(§1) MICs were determined by the broth microdilution method in accordance with Clinical and Laboratories Institute (CLSI) guidelines. In brief, fresh overnight bacterial cultures were suspended in sterile saline, and adjusted to a 0.5 McFarland turbidity standard. Bacterial suspensions were then diluted in cation adjusted Mueller-Hinton Broth (MHB II; BBL) to yield a final inoculum of approximately 5×10^5 colony-forming units (CFU)/mL. A master plate of antibiotics was prepared at a concentration equivalent to hundred-fold the highest desired final concentration in 100% dimethyl sulfoxide (DMSO). The master antibiotic plate was then diluted by serial twofold dilution with a multichannel pipette. The resulting dilution series of compounds were diluted 1:10 with sterile water or a solution of beta-lactamase inhibitor prepared at a concentration equivalent to eleven-fold the desired final concentration in deionized water leading to a 10% DMSO final concentration. A volume of 10 μL of the drug dilution series was transferred to 96-well assay plates. Assay plates were inoculated with 90 μL of bacterial suspensions and incubated at 35° C. for 20 hrs. The assay plates were read using a microtiter plate reader (Molecular Devices) at 600 nm as well as by visual observation with a reading mirror. The lowest concentration of the compound that prevented visible growth was recorded as the MIC.
(§2) Synergy or potentiation of beta-lactam antibiotics through inhibition of Q-lactamases was assessed against an isogenic panel of E. coli strains, each expressing a unique beta-lactamase, and against clinical strains.
(§3) Strain NB27273 (BW25113 pspB::Km^r) was obtained from the Keio transposon insertion collection. The strain has the pspB gene replaced by a kanamycin resistance marker (BW25113 pspB::Km^r). This strain was cured of the transposon in pspB via FLP recombinase using published methodology. The resulting strain, BW25113 pspB, was used as a host for multicopy vectors expressing key beta-lactamases. Multicopy plasmids directing constitutive expression of beta-lactamases were established as follows: Synthetic, codon optimized genes encoding E. coli KPC-2, SHV-12 and CTX-M-15 beta-lactamases were made by DNA2.0 (Palo Alto, Calif.). Each of the synthetic fragments were designed to contain NotI and NcoI restriction sites at their termini, allowing ligation into a NotI/NcoI digested pET28a(+) derivative for protein expression. […] The codon optimized nucleotide sequences and relevant primer recognition information is shown below:
(§4) The PCR products were then digested with XhoI and EcoRI and ligated into similarly digested plasmid pAH63-pstS(BlaP). […] Therefore, expression of beta-lactamases from pAH63-pstS(BlaP) based constructs is constitutive and the signal sequence is provided to direct these proteins to the periplasm. […] These fragments were then digested with XbaI and EcoRI, and each was inserted into pBAD18-kan that had been digested with the same enzymes to generate multicopy vectors expressing KPC-2, SHV-12 and CTX-M-15, respectively. These vectors were transformed into BW25113 pspB to generate strains NB27273-CDY0033 (expressing KPC-2), NB27273-CDY0030 (expressing SHV-12), NB27273-CDY0034 (expressing CTX-M-15) and NB27273-CDY0036 (expressing AmpC). The pBAD18-kan vector also contains the TEM promoter region and signal sequence, (but lacks any intact beta-lactamase genes) and was transformed into BW25113 pspB using standard protocols to generate the control strain NB27273-CDY0026.

A further assay relates to E. coli (KPC-2). Kind of assay: microbe, parasite or virus in culture. Particulars: E. coli (KPC-2). The protocol:
as §1, §2, §3, §4

Another assay deals with E. coli (SHV-12). Kind of assay: microbe, parasite or virus in culture. How it is done: as §1, §2, §3, §4
The next assay concerns E. coli (TEM-10). Kind of assay: microbe, parasite or virus in culture. How it is done:
as §1, §2
(§5) Construction of E. coli isogenic strains, NB27273-CDY0105 (OXA-18) and NB27273-CDY0048 (TEM-10). […] The gene encoding OXA-18 was then digested with XhoI and EcoRI and inserted into this vector, from which the gene for GIM-1 had been removed with XhoI and EcoRI.
From this template DNA, three fragments were generated by PCR using the following primer pairs;
This fragment was then digested with XbaI and EcoRI and inserted into pBAD-kan which was also cut with the same enzymes.
(§6) These final vectors for expression of OXA-18 and TEM-10 were transformed into BW25113 pspB to generate strains NB27273-CDY0105 (expressing OXA-18) and NB27273-CDY0048 (expressing TEM-10).

A further assay concerns E. coli (AmpC). Kind of assay: microbe, parasite or virus in culture. How it is done:
as §1, with “MIC. Performance of the assay was monitored by testing aztreonam against laboratory quality control strains in accordance with guidelines of the CLSI.” for “MIC.”
as §2
The gene encoding AmpC was PCR amplified from the genome of strain P. aeruginosa PAO1 (NB52019) (GenBank ID U5R279) using primer pair E252 (gccCTCGAGggcgaggccccggcggatcgc) (SEQ ID NO: 17) and E253 (tgaGAATTCtcagcgcttcagcggcacct) (SEQ ID NO: 18).
The PCR products were then digested with XhoI and EcoRI and ligated into similarly digested plasmid pAH63-pstS(BlaP). Plasmid pAH63-pstS(BlaP) is a derivative of plasmid pAH63 (J Bacteriol: 183(21): 6384-6393) made by cloning the TEM-1 (bla) promoter and signal peptide encoding region from plasmid pBAD (J Bacteriol. 1995 July 177(14):4121-30) into plasmid pAH63. This fragment was PCR amplified from pBAD using primer pair E192 (ttcaCTGCAGtgaacgttgcgaagcaacggC) (SEQ ID NO:19) and E194 (TCGAggatcctcgagagcaaaaacaggaaggcaaaatgccg) (SEQ ID NO:20), digested with PstI and BamHI and inserted into similarly digested plasmid pAH63. Therefore, expression of beta-lactamases from pAH63-pstS(BlaP) based constructs is constitutive and the signal sequence is provided to direct these proteins to the periplasm. Plasmid pAH63 based vectors are used for insertion into the genome in single copy, however, to provide higher expression levels to allow more sensitive detection of the susceptibility of compounds to the expressed beta-lactamases, the expression inserts contained in these vectors were moved to the replicative multicopy vector pBAD-Kan (J Bacteriol. 1995 July 177(14):4121-30). To accomplish this, the inserts encompassing the beta-lactamase genes, with the associated TEM promoter and signal sequences, were PCR amplified from their corresponding vectors using primer E268 (ccgTCTAGAcggatggcctttttgcgtttc) (SEQ ID NO:21) and E202 (aatcGAATTCttactgaccattaacgcccaagc) (SEQ ID NO:22) for the KPC2 construct, E204 (aatcGAATTCttaacgctgccagtgctcaatc) (SEQ ID NO:23) for the SHV-12 construct and E203 (aatcGAATTCttacagaccgtcggtgacaatc) (SEQ ID NO:24) for the CTX-M-15 construct. These fragments were then digested with XbaI and EcoRI, and each was inserted into pBAD18-kan that had been digested with the same enzymes to generate multicopy vectors expressing KPC-2, SHV-12 and CTX-M-15, respectively. […]

The subject of another assay is E. coli (OXA-18). Kind of assay: microbe, parasite or virus in culture. Particulars: for MIC of piperacillin with beta-lactamase inhibitor: Pip + BLI at 2 μg/mL. The protocol:
as §1, §2, §5, §6

Another assay has as its system E. coli ATCC 25922. Kind of assay: MIC by broth microdilution, BLI alone. Particulars: Escherichia coli, ATCC25922, read-out: Minimal Inhibitory Concentrations (MIC) of selected BLIs. How it is done: as §1, with “MIC. Performance of the assay was monitored by testing aztreonam against laboratory quality control strains in accordance with guidelines of the CLSI.” for “MIC.”
A general note: Dilution methods test growth across graded concentrations, often in twofold steps.

For another assay, the system named is K. pneumoniae ATCC 43816. Kind of assay: MIC by broth microdilution, BLI alone. The note with it: Klebsiella pneumoniae, ATCC43816, read-out: Minimal Inhibitory Concentrations (MIC) of selected BLIs. The protocol: as §1, with “MIC. Performance of the assay was monitored by testing aztreonam against laboratory quality control strains in accordance with guidelines of the CLSI.” for “MIC.”

The test system of the next assay is P. aeruginosa ATCC 27853. Kind of assay: MIC by broth microdilution, BLI alone. Particulars: Pseudomonas aeruginosa, ATCC27853, read-out: Minimal Inhibitory Concentrations (MIC) of selected BLIs. The protocol:
as §1, with “MIC. Performance of the assay was monitored by testing aztreonam against laboratory quality control strains in accordance with guidelines of the CLSI.” for “MIC.”

Where [1] appears, read: Escherichia coli, Mero alone, read-out: MIC of meropenem.

Counter-ions that a name gives are not always drawn.

As to `Nc1nc(/C(=N/OC2(C(=O)O)CC2)C(=O)N[C@@H]2C(=O)N(S(=O)(=O)O)[C@@H]2CN2CCOC2=O)cs1` [Beta-Lactam 5], the “Activity of Beta-Lactam 5” value in the assay with E. coli (CTX-M-15) (Beta-Lactam 5 alone) worked out at 0.125 µg/mL; in the assay on E. coli (KPC-2) (Beta-Lactam 5 alone) it was 0.25 µg/mL; with E. coli (SHV-12) (Beta-Lactam 5 alone), 0.5 µg/mL; in the assay with E. coli (TEM-10) (Beta-Lactam 5 alone), 2 µg/mL; in the assay with E. coli (AmpC) (Beta-Lactam 5 alone), 0.25 µg/mL; in the assay with E. coli (OXA-18) (Beta-Lactam 5 alone), 0.5 µg/mL.
Consider `CN1C[C@@H]2C[C@@H]3CN(C(=O)N3OS(=O)(=O)[O-])[C@@H]2C1=O.[Na+]` [Example 2, Sodium (4R,5aS,8aS)-7-methyl-2,8-dioxohexahydro-2H-1,4-methanopyrrolo[3,4-d][1,3]diazepin-3(4H)-yl sulfate], for which the MIC with E. coli ATCC 25922, with K. pneumoniae ATCC 43816 and with P. aeruginosa ATCC 27853 was > 64 µg/mL throughout. The “MIC of piperacillin with beta-lactamase inhibitor” value with E. coli (OXA-18) came out at 4 µg/mL.
Consider `O=C1[C@@H]2[C@@H](C[C@@H]3CN2C(=O)N3OS(=O)(=O)[O-])CN1C1CC1.[Na+]` [Example 3, Sodium (4R,5aS,8aS)-7-cyclopropyl-2,8-dioxohexahydro-2H-1,4-methanopyrrolo[3,4-d][1,3]diazepin-3(4H)-yl sulfate], for which the MIC in the assay on E. coli ATCC 25922, with K. pneumoniae ATCC 43816 and with P. aeruginosa ATCC 27853 was > 64 µg/mL in each case. In the assay on E. coli (OXA-18), the “MIC of piperacillin with beta-lactamase inhibitor” value was 4 µg/mL.
As for `O=C1[C@@H]2[C@@H](C[C@@H]3CN2C(=O)N3OS(=O)(=O)[O-])CN1CCO.[Na+]` [Example 4, Sodium (4R,5aS,8aS)-7-(2-hydroxyethyl)-2,8-dioxohexahydro-2H-1,4-methanopyrrolo[3,4-d][1,3]diazepin-3(4H)-yl sulfate], the MIC with E. coli ATCC 25922, with K. pneumoniae ATCC 43816 and with P. aeruginosa ATCC 27853 was > 64 µg/mL in each case.
Take `NCCN1C[C@@H]2C[C@@H]3CN(C(=O)N3OS(=O)(=O)O)[C@@H]2C1=O` [Example 5, (4R,5aS,8aS)-7-(2-aminoethyl)-2,8-dioxohexahydro-2H-1,4-methanopyrrolo[3,4-d][1,3]diazepin-3(4H)-yl hydrogen sulfate]: the MIC in the assay with E. coli ATCC 25922, in the assay on K. pneumoniae ATCC 43816 and in the assay with P. aeruginosa ATCC 27853 was > 64 µg/mL in each case.
As for `CCCN1C[C@@H]2C[C@@H]3CN(C(=O)N3OS(=O)(=O)[O-])[C@@H]2C1=O.[Na+]` [Example 6, Sodium (4R,5aS,8aS)-2,8-dioxo-7-propylhexahydro-2H-1,4-methanopyrrolo[3,4-d][1,3]diazepin-3(4H)-yl sulfate], the MIC in the assay on E. coli ATCC 25922, in the assay with K. pneumoniae ATCC 43816 and in the assay on P. aeruginosa ATCC 27853 was > 64 µg/mL in each case.
For `O=C1NCC[C@@H]2C[C@@H]3CN(C(=O)N3OS(=O)(=O)[O-])[C@H]12.[Na+]` [Example 7, Sodium (4R,5aR,9aS)-2,9-dioxooctahydro-1,4-methanopyrido[3,4-d][1,3]diazepin-3(2H)-yl hydrogen sulfate], the MIC in the assay on E. coli ATCC 25922, in the assay on K. pneumoniae ATCC 43816 and with P. aeruginosa ATCC 27853 was > 64 µg/mL each time. In addition, the “MIC of piperacillin with beta-lactamase inhibitor” value with E. coli (OXA-18) was 8 µg/mL.
Take `COC[C@@H]1NC(=O)[C@@H]2[C@H]1C[C@@H]1CN2C(=O)N1OS(=O)(=O)[O-].[Na+]` [Example 8, Sodium (4R,5aS,6R,8aS)-6-(methoxymethyl)-2,8-dioxohexahydro-2H-1,4-methanopyrrolo[3,4-d][1,3]diazepin-3(4H)-yl hydrogen sulfate]: the MIC with E. coli ATCC 25922, in the assay on K. pneumoniae ATCC 43816 and in the assay with P. aeruginosa ATCC 27853 was > 64 µg/mL throughout.
As to `C[C@@H](O)[C@H]1C(=O)N2C(C(=O)O)=C(S[C@@H]3CN[C@H](C(=O)N(C)C)C3)[C@H](C)[C@H]12` [Meropenem], the MIC was ≤ 0.06 µg/mL with E. coli (CTX-M-15) (setting [1]); 1 µg/mL with E. coli (KPC-2) (setting [1]); ≤ 0.06 µg/mL in the assay on E. coli (SHV-12) (setting [1]); ≤ 0.06 µg/mL in the assay on E. coli (TEM-10) (setting [1]); ≤ 0.06 µg/mL in the assay on E. coli (AmpC) (setting [1]); ≤ 0.06 µg/mL in the assay with E. coli (OXA-18) (setting [1]).
Regarding Ceftazidime, the MIC of ceftazidime in the assay on E. coli (CTX-M-15) (ceftazidime alone) is 16 µg/mL; with E. coli (SHV-12) (ceftazidime alone), >64 µg/mL; in the assay on E. coli (TEM-10) (ceftazidime alone), >64 µg/mL; in the assay on E. coli (AmpC) (ceftazidime alone), 4 µg/mL; in the assay on E. coli (OXA-18) (ceftazidime alone) it was >64 µg/mL.

Source of the values: patent US10065957B2, “Beta-lactamase inhibitors” (Novartis AG, priority 2016, dated 2018).
